Results taken from PMC12123601, “Light-Induced, Lysine-Targeting Irreversible Covalent Inhibition of the Human Oxygen Sensing Hydroxylase Factor Inhibiting HIF (FIH)” (Journal of the American Chemical Society, 2025).
Where “and” joins values, the source holds several entries; their conditions need not be identical. Equal values may be shown once.

Experiments:
PHD2 = target: T1, PHD2 (Homo sapiens, UniProt Q9GZT9); test: CETSA in Hep3B cells detecting PHD2 engagement; type: cell-based; settings: 50 μM, 12-48 h after 30 min light activation
T1 construct: endogenous in cells; host or cells: Hep3B (SCSP-5045)
T1 sequence (Q9GZT9 whole entry): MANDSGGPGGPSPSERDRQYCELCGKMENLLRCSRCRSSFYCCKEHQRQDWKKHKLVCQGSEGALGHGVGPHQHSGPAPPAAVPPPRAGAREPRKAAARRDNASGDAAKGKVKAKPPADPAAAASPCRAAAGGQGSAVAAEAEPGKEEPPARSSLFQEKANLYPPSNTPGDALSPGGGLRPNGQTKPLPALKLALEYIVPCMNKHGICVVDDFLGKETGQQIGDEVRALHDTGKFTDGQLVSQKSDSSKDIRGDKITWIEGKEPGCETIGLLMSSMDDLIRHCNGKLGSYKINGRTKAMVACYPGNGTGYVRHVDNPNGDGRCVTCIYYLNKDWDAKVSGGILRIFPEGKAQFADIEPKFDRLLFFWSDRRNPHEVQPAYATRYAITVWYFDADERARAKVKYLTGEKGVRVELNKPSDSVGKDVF
Protocol: (§1) To investigate potential cellular target engagement of NBA-ZG-2291 with FIH, we performed a time-dependent cellular thermal shift assay (CETSA) using Hep3B cells. The results imply that, after 30 min of light activation (365 nm, 16 W), NBA-ZG-2291 effectively stabilizes FIH with a ΔT m of about 9 °C after incubation for 12–48 h (Figure A), indicating sustained engagement with FIH. […] We also performed Western blotting to examine the protein levels of both HIF-1α and HIF-2α in control and NBA-ZG-2291-treated Hep3B cells.
Figure S11. The CETSA assay detecting PHD2 engagement was carried out with Hep3B cells grown in the presence of NBA-ZG-2291 (50 µM) for 12-48 h after 30 minutes of light activation (365 nm, 16W). The intensity of the bands for grayscale analysis was referenced to the starting temperature (37 °C). α-Actinin was the sample loading control. n = 2; mean ± SD. The uncropped blot is […]
(1 picture or pasted object on this page, not shown here)
3.4 Intact protein mass spectrometry […]
(§2) The process of customizing non-standard residues (NBA-ZG-2291 modified Lys106) in the amber14sb force field involved the following steps: First, the molecular structure of NBA-ZG-2291 was obtained and its topology was generated. […] The molecular charges were then calculated using the RESP method, and the topology file was updated with these charge values. […]

Hep3B cells = test: Whole-genome RNA sequencing of treated Hep3B cells; type: cell-based; settings: replicates B1, B2
Protocol: To confirm whether the effects of NBA-ZG-2291 on gene expression are FIH-dependent, we knocked down FIH using siRNA and compared the impact of NBA-ZG-2291 treatment and FIH knockdown (siFIH) on gene expression in Hep3B cells. Whole-genome expression profiling analysis was conducted in NBA-ZG-2291-treated Hep3B cells and FIH knockdown Hep3B cells, with DMSO-treated Hep3B cells serving as controls.

HIF-1α and HIF-2α = test: Western blotting of HIF-1α and HIF-2α protein levels in Hep3B cells; type: cell-based
Protocol: as §1

FIH = FIH (Homo sapiens, UniProt Q9NWT6); test: Intact protein mass analysis of FIH treated with compound; type: binding; settings: FIH 5 μM, compound 50 μM
Sequence of FIH (Q9NWT6 whole entry): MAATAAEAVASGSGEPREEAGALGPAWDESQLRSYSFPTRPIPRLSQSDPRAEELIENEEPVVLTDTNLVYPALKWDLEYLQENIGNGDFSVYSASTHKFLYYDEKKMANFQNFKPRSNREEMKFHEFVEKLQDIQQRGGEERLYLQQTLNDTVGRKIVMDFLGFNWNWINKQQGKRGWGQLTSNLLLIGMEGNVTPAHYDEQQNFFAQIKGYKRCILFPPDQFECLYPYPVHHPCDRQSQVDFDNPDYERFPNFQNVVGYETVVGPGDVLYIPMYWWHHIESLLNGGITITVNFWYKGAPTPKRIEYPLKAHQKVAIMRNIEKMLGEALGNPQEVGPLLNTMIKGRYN
Protocol: 3 (A) Intact protein mass analysis of FIH (5 μM) and FIH (5 μM) treated with NBA-ZG-2291 (50 μM) without irradiation. (B) Crystal structure view of FIH in complex with NBA-ZG-2291 without irradiation. (C) Superimposition of the crystal structure FIH in complex with NBA-ZG-2291 (green) (PDB ID: 9I4H) and that in complex with ZG-2291 (pink) (PDB ID: 8II0 ). (D) Intact protein mass analysis of FIH (5 μM) and FIH (5 μM) treated with NBA-ZG-2291 (50 μM) followed by 30 min of irradiation (365 nm, 16 W). (E) Predicted covalent binding mode of NBA-ZG-2291 with FIH.
Subsequently, we verified the covalent reaction of NBA-ZG-2291 and FIH with irradiation in solution using, intact protein mass analyzes.
3.4 Intact protein mass spectrometry
Purified FIH (5 μM final) was incubated with Lys-1 at 50 μM in 50 mM Tris pH 7.5, 50 μM MnCl2 in a total volume of 100 μL.
All experiments were incubated at 25 ℃ for 1 h, then with or without irradiation at 365 nm for 30 min. […]
as §2

Covalent adduct with FIH by intact protein MS (FIH; absence of irradiation): failed to detect the covalent adducts
Structure (SMILES): O=C(O)CNC(=O)c1ncc(-c2cc(-c3ccc(CO)c([N+](=O)[O-])c3)no2)cc1O [NBA-ZG-2291]
Effect on stability of PHD2 in cells (CETSA) (PHD2): not observed to affect the stability of PHD2
DPM1 expression (whole-genome RNA sequencing) (Hep3B cells): 3.9965 and 3.239
SCYL3 expression (whole-genome RNA sequencing) (Hep3B cells): 0.949 and 1.202
TNMD expression (whole-genome RNA sequencing) (Hep3B cells): 0
TSPAN6 expression (whole-genome RNA sequencing) (Hep3B cells): 7.032 and 6.946
Protein levels of HIF-1α and HIF-2α (HIF-1α and HIF-2α): did not significantly alter the levels of either HIF-1α or HIF-2α
Covalent adduct with FIH by intact protein MS (FIH; 30 min light activation (365 nm, 16 W)): a new peak with the anticipated mass shift corresponding to covalent reaction was detected
